Values of other authors in patent US20230024050A1, “Dermatological Compositions and Methods of Treatment against Cutaneous T-Cell Lymphoma” (Soligenix, Inc., priority 2021, published 2023).
Like-named read-outs stand apart in the source and are kept apart here.

Columns and labels:
[1] = administered intravenously at much higher doses
[2] = tested on: CTCL patients IA, IB, IIA refractory to ≥2 previous treatments; settings: at end of therapy, time not stated

Row | SMILES | Significant AEs on intravenous administration [1] | Response (CAILS), 24 Week ([2]; 6.5 mg/m^2, N = 15) | Response (CAILS), 24 Week ([2]; 300 mg/m^2, N = 28) | Response (CAILS), 24 Week ([2]; >300 mg/m^2, N = 15)
1 | Cc1cc(O)c2c(=O)c3c(O)cc(O)c4c5c(O)cc(O)c6c(=O)c7c(O)cc(C)c8c1c2c(c34)c(c78)c65 [hypericin] | does not cause significant AEs other than those related to photoactivity | – | – | –
2 | C=C(c1ccc(C(=O)O)cc1)c1cc2c(cc1C)C(C)(C)CCC2(C)C [Oral Bexarotene, Bexarotene] | – | 20%^1 | 36%^1 | 47%^1
